The results in this text go back to patent publication US11932606B2, “Anti-cancer/anti-fibrosis compounds” (THE REGENTS OF THE UNIVERSITY OF CALIFORNIA, priority 2017, dated 2024).

In one test the target is HIPK2 (Homo sapiens (Human), UniProt Q9H2X6). Put plainly: HIPK2 enzymatic activity inhibition (Z'-LYTE). The conditions noted are these: read-out: HIPK2 IC50. It counts as biochemical. The procedure:
HIPK2 Enzymatic Activity Inhibition: Determination of IC50 Values for Selected Compounds
The half maximal inhibitory concentration (IC50) with respect to HIPK2 inhibition was determined for the compounds of the invention by using Z′-LYTE™ from ThermoFisher Scientific's SelectScreen™ Biochemical Kinase Profiling Service (Waltham, MA). Compounds were screened in 1% DMSO (final) in the well. For 10 point titrations, 3-fold serial dilutions were conducted from the starting concentration. The 2×HIPK2/Ser/Thr 09 mixture was prepared in 50 mM HEPES pH 7.5, 0.01% BRIJ-35, 10 mM MgCl2, 1 mM EGTA.
100 nL of 100× test compound in 100% DMSO, 2.4 uL of kinase buffer (50 mM HEPES pH 7.5, 0.01% BRIJ-35, 10 mM MgCl2, 1 mM EGTA), 5 uL of 2×HIPK2/Ser/Thr 09 mixture, and 2.5 uL of 4×ATP solution were mixed and agitated for 30 seconds. Then the Kinase Reaction was incubated at room temperature for 60 minutes. […] After 30 second of plate shake, the reaction plate was incubated for another 60 min at room temperature. Then the plate was read on a fluorescence plate reader (CLARIOstar, BMG Labtech, Germany) as plate reader and data was analyzed using XLfit from IDBS.

A further test has as its target CDK8/cyclinC (Homo sapiens (Human), UniProt P49336). Put plainly: CDK8 LanthaScreen Eu kinase binding assay. The conditions noted are these: read-out: IC50 against CDK8. As to the method: CDK8 Enzymatic Activity Inhibition: Determination of IC50 Values for Selected Compounds
The half maximal inhibitory concentration (IC50) with respect to CDK8 inhibition was determined for the compounds of the invention by using LanthaScreen™ Eu kinase binding assay from ThermoFisher Scientific's SelectScreen™ Biochemical Kinase Profiling Service (Waltham, MA). Compounds were screened in 1% DMSO (final) in the well. For 10 point titrations, 3-fold serial dilutions were conducted from the starting concentration.
The 2×CDK8/cyclinC/Eu-anti-His mixture is prepared in kinase buffer A (50 mM HEPES pH 7.5, 0.01% BRIJ-35, 10 mM MgCl2, 1 mM EGTA). The Bar-coded, low volume, white 384-well plate (Greiner Cat. #784207) were used for the assay. 160 nL of 100× test compound in 100% DMSO, 3.84 uL of kinase buffer A, 8 uL of 2×CDK8/cyclinC/Eu-anti-His mixture, and 4 uL of 4× tracer 236 were mixed and shaked for 30 seconds. Then the Kinase Reaction was incubated at room temperature for 60 minutes. After the 1 hour Kinase Reaction incubation, the plate was read on a fluorescence plate reader (Infinite F500, Tecan Systems Inc, USA), and data was analyzed using XLfit from IDBS. The dose response curve was curve fit to model number 205 (sigmoidal dose-response model).
(In TR-FRET formats the signal depends on donor and acceptor labels being close together.)

For the next test, the system named is MOLM-14. Put plainly: AML cell viability (CellTiter-Glo, day 7). It counts as cell-based. Conditions: Homo sapiens. The procedure:
(§1) MV-4-11 cell (ATCC CRL-9591), RS4;11 (ATCC CRL-1873) and TG-1 (ATCC CRL1608) were acquired from ATCC. MOLM14 (ACC777) was acquired from DSMZ. All cells were plated (96-well) in triplicate at 5000 cells per well for testing (n=3) with compound. On day 3, an equal volume for all wells was split-back with fresh media and compound. On day 7, the CellTiter-Glo Luminescent Cell Viability Assay (Promega) was performed to measure the response. For cell viability assay, two independent experiments have been done.
Background: In ATP-based viability assays light output follows the ATP content of the culture.

The next test concerns MV-4-11. Put plainly: AML cell viability (CellTiter-Glo, day 7). It counts as cell-based. Conditions: Homo sapiens. As to the method:
as §1

The next test relates to RS4;11. Put plainly: AML cell viability (CellTiter-Glo, day 7). It counts as cell-based. Conditions: Homo sapiens. The procedure:
as §1

In the next test the test system is TG-1. Put plainly: AML cell viability (CellTiter-Glo, day 7). It counts as cell-based. As to the method: as §1
For the next test, the system named is Hela. Put plainly: Cell viability assay (CellTiter-Glo, day 7). It counts as cell-based. Conditions: Homo sapiens, 168 h. The procedure:
(§2) CLL-119, Hela, HCT116, MCF7, Colo205, SW620, H2052, MSTO-211H, U-251, Colo 357, OE33, Huh-7, A549, BT474, A204 and H290 cells were acquired from UCSF Cell and Genome Engineering Core. A549-Brm3 and H2030-Brm3 were from UCSF thoracic oncology lab. All cells were plated (96-well) in triplicate at 500 cells per well for testing (n=3) with compound. Medium was changed once on day 3. On day 7, the CellTiter-Glo Luminescent Cell Viability Assay (Promega) was performed to measure the response. For cell viability assay, two independent experiments have been done.

For the next test, the system named is MSTO-211H. Put plainly: Cell viability assay (CellTiter-Glo, day 7). It counts as cell-based. The conditions noted are these: Homo sapiens, 168 h. The procedure: as §2
In another test the test system is MV-4-11 cancer cell line. Put plainly: Western blot of treated cells. It counts as cell-based. The procedure:
For cell lines: All cells were plated (6-well) at 5×10^5 cells per well with medium containing 1% FBS overnight. And then Compound 29 was added in different concentrations with medium containing 1% FBS. After 16 hours, cells were lysed in M-per Mammalian Protein Extraction Reagent (78501, Thermo Fisher Scientific) containing protease and phosphatase inhibitors (88669, Thermo Fisher Pierce). Total protein concentration was measured using the Pierce BCA protein Assay Kit (#23227).
Proteins were separated on SDS-PAGE and transferred to nitrocellulose membrane. Immunoblotting were performed using specific antibodies: phosphor-Stat1-pS727 (8826, Cell signaling), total-Stat1 (14994, Cell signaling), Phospho-Stat3 (Tyr705) (9131, Cell signaling), Stat3 (9139, Cell signaling), pSTAT5-pS726 (ab128896, abcam), stat5 (94205, cell signaling), YAP (14074, Cell signaling), CYR61(14479, Cell signaling), CTGF (ab6992, Abcam), c-Myc (13987, Cell signaling), Mcl-1 (94296, Cell signaling) and GAPDH (AM4300, Invitrogen). (FIG. 1A, FIG. 1B, FIG. 1C). MV-4-11 cancer cell line was treated with compound 29 at various concentrations (30 nM up to 10 μM) for 24 hours and 48 hours, respectively.
For orientation: In western blotting, separated proteins are transferred to a membrane and probed.

Test [1] relates to MOLM-14 AML cancer cell line. Put plainly: Western blot of treated cells. It counts as cell-based. Conditions: MOLM-14, 30 nM up to 3 μM, 24 hours and 48 hours.

pIC50: −log10 of the molar value. Like-named read-outs stand apart in the source and are kept apart here.

Sequence of HIPK2 (Q9H2X6 whole entry): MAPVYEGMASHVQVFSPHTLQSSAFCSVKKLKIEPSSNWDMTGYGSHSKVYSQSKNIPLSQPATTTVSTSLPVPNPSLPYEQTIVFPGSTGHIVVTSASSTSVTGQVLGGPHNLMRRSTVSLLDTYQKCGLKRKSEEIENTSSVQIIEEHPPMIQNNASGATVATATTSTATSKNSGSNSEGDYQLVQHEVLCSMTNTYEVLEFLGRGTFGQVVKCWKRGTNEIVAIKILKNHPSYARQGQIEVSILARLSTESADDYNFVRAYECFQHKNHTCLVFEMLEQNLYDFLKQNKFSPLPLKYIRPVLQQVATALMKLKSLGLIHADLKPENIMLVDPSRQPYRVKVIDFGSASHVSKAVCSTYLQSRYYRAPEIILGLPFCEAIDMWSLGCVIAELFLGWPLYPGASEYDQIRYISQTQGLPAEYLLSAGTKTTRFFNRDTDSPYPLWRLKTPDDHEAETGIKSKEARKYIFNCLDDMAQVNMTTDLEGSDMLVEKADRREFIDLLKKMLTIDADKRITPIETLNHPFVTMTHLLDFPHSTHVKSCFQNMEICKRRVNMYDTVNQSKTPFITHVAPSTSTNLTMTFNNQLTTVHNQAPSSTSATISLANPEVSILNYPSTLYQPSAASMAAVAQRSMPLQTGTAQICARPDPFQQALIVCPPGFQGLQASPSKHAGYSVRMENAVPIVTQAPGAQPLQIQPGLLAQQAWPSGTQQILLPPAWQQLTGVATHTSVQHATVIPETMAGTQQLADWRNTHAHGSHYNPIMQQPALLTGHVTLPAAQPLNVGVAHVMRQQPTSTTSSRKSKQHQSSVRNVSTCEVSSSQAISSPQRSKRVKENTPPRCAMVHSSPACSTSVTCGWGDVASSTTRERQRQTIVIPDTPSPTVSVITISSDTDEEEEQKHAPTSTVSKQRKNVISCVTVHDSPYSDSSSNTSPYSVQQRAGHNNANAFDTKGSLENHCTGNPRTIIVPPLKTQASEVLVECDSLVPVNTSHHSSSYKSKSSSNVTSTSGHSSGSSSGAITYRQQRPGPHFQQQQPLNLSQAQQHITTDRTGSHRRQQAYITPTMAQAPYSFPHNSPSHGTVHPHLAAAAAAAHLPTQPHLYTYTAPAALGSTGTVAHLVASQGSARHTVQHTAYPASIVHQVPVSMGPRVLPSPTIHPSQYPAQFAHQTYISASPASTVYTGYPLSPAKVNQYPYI
Sequence of CDK8/cyclinC (P49336 whole entry): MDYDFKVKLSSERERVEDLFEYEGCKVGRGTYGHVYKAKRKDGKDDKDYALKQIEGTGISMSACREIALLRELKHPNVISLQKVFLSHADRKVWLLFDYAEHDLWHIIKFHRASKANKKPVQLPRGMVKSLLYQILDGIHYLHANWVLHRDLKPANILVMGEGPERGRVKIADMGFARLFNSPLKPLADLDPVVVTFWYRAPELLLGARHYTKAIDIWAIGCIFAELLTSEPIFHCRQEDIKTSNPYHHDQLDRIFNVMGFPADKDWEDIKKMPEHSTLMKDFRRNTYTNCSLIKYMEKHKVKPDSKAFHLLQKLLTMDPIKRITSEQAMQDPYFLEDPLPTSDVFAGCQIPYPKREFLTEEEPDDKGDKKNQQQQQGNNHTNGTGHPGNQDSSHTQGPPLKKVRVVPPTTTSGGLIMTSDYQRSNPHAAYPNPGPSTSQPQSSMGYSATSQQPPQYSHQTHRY
Sequence of CDK8/cyclinC (P24863 whole entry partner): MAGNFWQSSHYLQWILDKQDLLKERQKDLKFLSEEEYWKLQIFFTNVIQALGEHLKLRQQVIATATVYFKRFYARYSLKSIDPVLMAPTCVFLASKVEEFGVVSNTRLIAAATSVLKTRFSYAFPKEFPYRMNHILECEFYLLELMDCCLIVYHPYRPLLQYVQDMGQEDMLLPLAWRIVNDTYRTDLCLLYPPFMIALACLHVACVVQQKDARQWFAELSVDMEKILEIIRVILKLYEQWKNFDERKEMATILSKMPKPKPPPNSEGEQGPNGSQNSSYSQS

Regarding `Nc1nccc2c(Br)cc3cc(C(=O)[O-])ccc3c12.[Na+]` [Compound 29, Sodium 1-amino-5-bromobenzo[h]isoquinoline-8-carboxylate], the pIC50 on HIPK2 is greater than 6.52; on CDK8/cyclinC, greater than 6.52; with MOLM-14 (168 h, MOLM-14, day 7, read-out: Cell viability IC50) it was greater than 6.00; in the test on MOLM-14 (MOLM-14, text statement, read-out: potency in cell viability assay) it was greater than 6.00; in the test on MV-4-11 (MV4-11, 168 h, MV-4-11, day 7, read-out: Cell viability IC50), greater than 6.00; in the test with MV-4-11 (MV4-11, MV-4-11, text statement, read-out: potency in cell viability assay) it was greater than 6.00. Further, the pIC50 in the test on RS4;11 (168 h, RS4;11, day 7, read-out: Cell viability IC50) was greater than 6.00; with RS4;11 (RS4;11, text statement, read-out: potency in cell viability assay), greater than 6.00; in the test on TG-1 (TG1, 168 h, TG-1, day 7, read-out: Cell viability IC50) it was greater than 6.00; in the test on TG-1 (TG1, TG-1, text statement, read-out: potency in cell viability assay), greater than 6.00; with Hela, 5.00 to 6.00; with MSTO-211H, 5.00 to 6.00. The “level of p-STAT1(Ser727), p-STAT3(Tyr705), p-STAT5(Ser726)” value in the test with MV-4-11 cancer cell line (MV-4-11, 30 nM up to 10 μM, 24 hours and 48 hours) was “dose-response down regulation”. For the same compound, the “level of YAP, CYR61, CTGF, C-MYC, and MCL-1” value in the test on MV-4-11 cancer cell line (MV-4-11, 48 hours) is “down regulate”. Moreover, in test [1], the “level of p-STAT1(Ser727), p-STAT3(Tyr705), p-STAT5(Ser726) and YAP” value is on record as “down regulate”.
